Results taken from PubChem BioAssay (NCI).
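GI50 is the concentration that inhibits growth by half. TGI: total growth inhibition.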

How the values were obtained:
Experiment in all cases: NCI-60 cell line screen, 384-well format
A549 NSCLC = system: A549 NSCLC
ACHN renal = system: ACHN renal
BT-549 breast = system: BT-549 breast
CAKI-1 renal = system: CAKI-1 renal
CCRF-CEM leukemia = system: CCRF-CEM leukemia
DU-145 prostate = system: DU-145 prostate
HCT-116 colon = system: HCT-116 colon
HCT-15 colon = system: HCT-15 colon
HL-60(TB) leukemia = system: HL-60(TB) leukemia
HOP-62 NSCLC = system: HOP-62 NSCLC
HOP-92 NSCLC = system: HOP-92 NSCLC
K-562 leukemia = system: K-562 leukemia
LOX IMVI melanoma = system: LOX IMVI melanoma
MALME-3M melanoma = system: MALME-3M melanoma
MCF7 breast = system: MCF7 breast
MDA-MB-468 breast = system: MDA-MB-468 breast
MOLT-4 leukemia = system: MOLT-4 leukemia
NCI-H226 lung = system: NCI-H226 lung
NCI-H23 lung = system: NCI-H23 lung
NCI-H322M lung = system: NCI-H322M lung
NCI-H460 NSCLC = system: NCI-H460 NSCLC
NCI-H522 lung = system: NCI-H522 lung
NCI/ADR-RES ovarian = system: NCI/ADR-RES ovarian
OVCAR-3 ovarian = system: OVCAR-3 ovarian
OVCAR-4 ovarian = system: OVCAR-4 ovarian
OVCAR-5 ovarian = system: OVCAR-5 ovarian
OVCAR-8 ovarian = system: OVCAR-8 ovarian
PC-3 prostate = system: PC-3 prostate
RPMI-8226 leukemia = system: RPMI-8226 leukemia
RXF 393 renal = system: RXF 393 renal
SF-295 CNS = system: SF-295 CNS
SK-MEL-28 melanoma = system: SK-MEL-28 melanoma
SK-MEL-5 melanoma = system: SK-MEL-5 melanoma
SN12C renal = system: SN12C renal
SNB-19 CNS = system: SNB-19 CNS
SR leukemia = system: SR leukemia
SW-620 colon = system: SW-620 colon
T-47D breast = system: T-47D breast
TK-10 renal = system: TK-10 renal
UACC-257 melanoma = system: UACC-257 melanoma
UO-31 renal = system: UO-31 renal

Q: Which results are given for `Cc1nc(-c2nc(-c3ccc(OC(F)(F)F)cc3)no2)nn1Cc1cccc(N2CCC(S(C)(=O)=O)CC2)c1`?
A: GI50 (A549 NSCLC): 2.61 µM; TGI (A549 NSCLC): 33.9 µM; GI50 (ACHN renal): 10.4 µM; TGI (ACHN renal): 34.6 µM; GI50 (BT-549 breast): 2.1 µM; TGI (BT-549 breast): 26.2 µM; GI50 (CAKI-1 renal): 4.66 µM; TGI (CAKI-1 renal): 71.1 µM; GI50 (CCRF-CEM leukemia): < 0.01 µM; TGI (CCRF-CEM leukemia): 3.59 µM; GI50 (DU-145 prostate): 29.4 µM; TGI (DU-145 prostate): > 100 µM; GI50 (HCT-116 colon): < 0.01 µM; TGI (HCT-116 colon): 2.82 µM; GI50 (HCT-15 colon): 6.19 µM; TGI (HCT-15 colon): > 100 µM; GI50 (HL-60(TB) leukemia): 0.156 µM; TGI (HL-60(TB) leukemia): 0.29 µM; GI50 (HOP-62 NSCLC): < 0.01 µM; TGI (HOP-62 NSCLC): 20.6 µM; GI50 (HOP-92 NSCLC): 0.567 µM; TGI (HOP-92 NSCLC): 46.2 µM; GI50 (K-562 leukemia): < 0.01 µM; TGI (K-562 leukemia): > 100 µM; GI50 (LOX IMVI melanoma): 0.0479 µM; TGI (LOX IMVI melanoma): > 100 µM; GI50 (MALME-3M melanoma): 23.6 µM; TGI (MALME-3M melanoma): 56.6 µM; GI50 (MCF7 breast): 0.221 µM; TGI (MCF7 breast): 50.8 µM; GI50 (MDA-MB-468 breast): < 0.01 µM; TGI (MDA-MB-468 breast): < 0.01 µM; GI50 (MOLT-4 leukemia): 0.0271 µM; TGI (MOLT-4 leukemia): 0.208 µM; GI50 (NCI-H226 lung): 0.664 µM; TGI (NCI-H226 lung): 39.5 µM; GI50 (NCI-H23 lung): < 0.01 µM; TGI (NCI-H23 lung): < 0.01 µM; GI50 (NCI-H322M lung): 0.0149 µM; TGI (NCI-H322M lung): 16.4 µM; GI50 (NCI-H460 NSCLC): < 0.01 µM; TGI (NCI-H460 NSCLC): 0.0183 µM; GI50 (NCI-H522 lung): 1.08 µM; TGI (NCI-H522 lung): 17.6 µM; GI50 (NCI/ADR-RES ovarian): < 0.01 µM; TGI (NCI/ADR-RES ovarian): 0.0515 µM; GI50 (OVCAR-3 ovarian): 5.09 µM; TGI (OVCAR-3 ovarian): > 100 µM; GI50 (OVCAR-4 ovarian): 0.292 µM; TGI (OVCAR-4 ovarian): 24.8 µM; GI50 (OVCAR-5 ovarian): 86 µM; TGI (OVCAR-5 ovarian): > 100 µM; GI50 (OVCAR-8 ovarian): < 0.01 µM; TGI (OVCAR-8 ovarian): 19.6 µM; GI50 (PC-3 prostate): 17.3 µM; TGI (PC-3 prostate): > 100 µM; GI50 (RPMI-8226 leukemia): < 0.01 µM; TGI (RPMI-8226 leukemia): 1.03 µM; GI50 (RXF 393 renal): < 0.01 µM; TGI (RXF 393 renal): < 0.01 µM; GI50 (SF-295 CNS): 0.0932 µM; TGI (SF-295 CNS): 37 µM; GI50 (SK-MEL-28 melanoma): 28 µM; TGI (SK-MEL-28 melanoma): 80.9 µM; GI50 (SK-MEL-5 melanoma): < 0.01 µM; TGI (SK-MEL-5 melanoma): 11.8 µM; GI50 (SN12C renal): 20.4 µM; TGI (SN12C renal): > 100 µM; GI50 (SNB-19 CNS): 47.2 µM; TGI (SNB-19 CNS): > 100 µM; GI50 (SR leukemia): < 0.01 µM; TGI (SR leukemia): < 0.01 µM; GI50 (SW-620 colon): 11.5 µM; TGI (SW-620 colon): > 100 µM; GI50 (T-47D breast): < 0.01 µM; TGI (T-47D breast): 23.4 µM; GI50 (TK-10 renal): 8.15 µM; TGI (TK-10 renal): 78.8 µM; GI50 (UACC-257 melanoma): 0.0565 µM; TGI (UACC-257 melanoma): 0.827 µM; GI50 (UO-31 renal): 7.92 µM; TGI (UO-31 renal): 36.6 µM
